These results are taken from ChEMBL document CHEMBL4351018, “Novel phenanthridin-6(5H)-one derivatives as potent and selective BET bromodomain inhibitors: Rational design, synthesis and biological evaluation” (Eur J Med Chem, 2019).

Data set [1] can be described thus: AUC (0 to infinity) in Sprague-Dawley rat at 2.5 mg/kg, iv measured for 0.083 to 24 hrs by LC-MS/MS/MS analysis. Details: dose 2.5 mg/kg, time infinity, route intravenous. In kind it is ADME, organism-based. Particulars: in vivo.
A short description of data set [2]: Cmax in Sprague-Dawley rat at 2.5 mg/kg, iv measured for 0.083 to 24 hrs by LC-MS/MS analysis. Details: dose 2.5 mg/kg, route intravenous. Type of data set: ADME, organism-based. The note with it: in vivo.
Data set [3] is described as follows: Apparent clearance in Sprague-Dawley rat at 2.5 mg/kg, iv measured for 0.083 to 24 hrs by LC-MS/MS analysis. In kind it is ADME, organism-based. The note with it: in vivo, read-out: CL(app) (converted).
A short description of data set [4]: Half life in Sprague-Dawley rat at 10 mg/kg, po measured for 0.083 to 24 hrs by LC-MS/MS analysis. Type of data set: ADME, organism-based. The note with it: in vivo.
The nature of data set [5]: Volume of distribution at steady state in Sprague-Dawley rat at 10 mg/kg, po measured for 0.083 to 24 hrs by LC-MS/MS analysis. In kind it is ADME, organism-based. The note with it: in vivo.
The test system of data set [6] is A549. Nature of the data set: Induction of apoptosis in human A549 cells assessed as late apoptotic cells at 5.0 uM incubated for 48 hrs by annexin V-FITC/PI double staining based flow cytometric analysis (reference value: 0.039%). In kind it is functional.
Data set [7] deals with Bromodomain-containing protein 3 (Homo sapiens) (UniProt Q15059). Nature of the data set: Binding affinity to BRD3 bromodomain 1 (unknown origin) at 20 uM by Alpha screen assay relative to control. (In general: In Alpha technology, singlet oxygen from a donor bead excites a nearby acceptor bead.)
Bromodomain-containing protein 3 (Homo sapiens), sequence (Q15059 2-726 limits assumed): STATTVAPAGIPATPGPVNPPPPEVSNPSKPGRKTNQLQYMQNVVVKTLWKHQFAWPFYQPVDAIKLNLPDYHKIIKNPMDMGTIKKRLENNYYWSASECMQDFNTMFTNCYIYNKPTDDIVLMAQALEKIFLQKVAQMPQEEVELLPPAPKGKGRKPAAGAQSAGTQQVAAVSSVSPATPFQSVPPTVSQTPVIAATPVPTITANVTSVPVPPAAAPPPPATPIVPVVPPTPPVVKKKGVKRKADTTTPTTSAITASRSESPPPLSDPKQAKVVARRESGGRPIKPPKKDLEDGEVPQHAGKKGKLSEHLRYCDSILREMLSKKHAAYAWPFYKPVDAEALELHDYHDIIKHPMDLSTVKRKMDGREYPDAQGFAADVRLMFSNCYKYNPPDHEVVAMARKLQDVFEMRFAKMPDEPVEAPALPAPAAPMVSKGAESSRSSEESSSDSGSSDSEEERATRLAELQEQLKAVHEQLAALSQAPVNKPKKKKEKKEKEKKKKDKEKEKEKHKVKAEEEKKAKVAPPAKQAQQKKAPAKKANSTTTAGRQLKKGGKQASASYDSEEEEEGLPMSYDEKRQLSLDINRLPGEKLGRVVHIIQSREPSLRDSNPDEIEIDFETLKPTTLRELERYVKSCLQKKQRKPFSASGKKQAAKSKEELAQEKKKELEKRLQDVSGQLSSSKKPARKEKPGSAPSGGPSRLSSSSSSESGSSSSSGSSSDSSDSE
In data set [8] the target is Bromodomain-containing protein 4 (Homo sapiens, UniProt O60885). Nature of the data set: Binding affinity to recombinant human His-tagged BRD4 bromodomain 2 expressed in […] insect cells using biotinylated H4(1 to 21)K5/8/12/16Ac peptide as substrate at 20 uM preincubated for 30 mins followed by substrate addition and measured after 30 mins by Alpha screen assay relative to control.

Data set [9] can be described thus: AUC (0 to infinity) in Sprague-Dawley rat at 10 mg/kg, po measured for 0.083 to 24 hrs by LC-MS/MS analysis. In kind it is ADME, organism-based. Also on record: dose 10 mg/kg, route oral, time infinity. The note with it: in vivo.
Data set [10] concerns A549. Nature of the data set: Induction of apoptosis in human A549 cells assessed as early apoptotic cells at 0.3 uM incubated for 48 hrs by annexin V-FITC/PI double staining based flow cytometric analysis (reference value: 1.76%). Type of data set: functional.
Data set [11] addresses T1, Bromodomain-containing protein 9 (Homo sapiens) (UniProt Q9H8M2).
T1 sequence (whole entry): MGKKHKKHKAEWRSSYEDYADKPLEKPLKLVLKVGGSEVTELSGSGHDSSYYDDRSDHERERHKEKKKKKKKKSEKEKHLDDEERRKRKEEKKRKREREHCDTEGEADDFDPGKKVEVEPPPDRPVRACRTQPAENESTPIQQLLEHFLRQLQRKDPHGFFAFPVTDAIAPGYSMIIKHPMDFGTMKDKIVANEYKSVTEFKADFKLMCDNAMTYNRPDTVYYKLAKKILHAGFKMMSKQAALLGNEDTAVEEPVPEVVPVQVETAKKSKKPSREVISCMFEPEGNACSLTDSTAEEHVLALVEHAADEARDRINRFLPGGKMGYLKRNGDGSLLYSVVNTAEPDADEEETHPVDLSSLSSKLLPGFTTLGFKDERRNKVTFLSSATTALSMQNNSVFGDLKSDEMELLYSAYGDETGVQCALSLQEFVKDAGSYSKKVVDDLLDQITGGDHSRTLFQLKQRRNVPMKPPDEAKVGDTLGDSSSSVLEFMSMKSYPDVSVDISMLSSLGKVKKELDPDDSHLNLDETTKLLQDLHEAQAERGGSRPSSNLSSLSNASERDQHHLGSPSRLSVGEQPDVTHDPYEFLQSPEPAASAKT
Nature of the data set: Binding affinity to BRD9 (unknown origin) at 20 uM by Alpha screen assay relative to control.

The AUC(0-inf) is the area under the concentration-time curve extrapolated to infinity. A high value points to more exposure. A word on the Cmax: it is the peak of the concentration-time curve. As a reminder, the half-life is how long it takes for the measured level to halve. Turning to `COc1ccc(Cl)cc1S(=O)(=O)Nc1ccc2[nH]c(=O)c3ccccc3c2c1`, the AUC(0-inf) in data set [1] came to 0.505 µg·h/mL; in [9] it was 0.67 µg·h/mL. In [2], this compound yielded a Cmax of 0.0969 µg/mL. The clearance in data set [3] is 5.15 L/h/kg. Besides, in [4], the half-life was 3.87 h. Moreover, in [5], the Vdss amounted to 97.34 L/kg. For the same compound, the Activity is 8.25% with A549 [6]; more than 70% in [7]; more than 70% in [8]; 27.7% in the data set with A549 [10]; more than 30% in [11].
